Measurements from patent publication US20110124523A1, “High Throughput Method for Detecting Apoptosis of Embryonic Stages of Metazoan Helminthic Parasites” (INSTITUTE OF LIFE SCIENCES, priority 2009, published 2011).
Values joined by “and” are separate entries in the source; they are usually repeats but may differ in a detail not shown here. Equal entries are not always repeated.

Tested on: embryonic stages of S. digitata
Assay: Presence of cytochrome-c in the cytoplasm, anti cytochrome c-FITC staining
Assay type: cell-based, Setaria digitata
Settings: 24 hr
Protocol: Adult female filarial worms Setaria digitata were collected from the peritoneum of cattle, slaughtered at a nearby abattoir in sterile Hanks Balanced Salt Solution (HBSS) medium (Sigma H 2387-1L) and transported to the laboratory in a sterile container. The medium containing 1% glucose (Sigma G 7528), Penicillin 100 units/ml, Streptomycin 100 μg/ml (Sigma P 4333). And Amphotericin-B 0.25 μg/ml (Sigma A 2942) was buffered with NaHCO3 (Sigma S 5761). About 5 to 7 worms were taken in a petridish, washed three times in medium, dissected into small pieces in 10 ml of medium under sterile conditions and incubated at 37° C. for 30 minutes to allow the release of embryonic stages (eggs and microfilariae) into the medium. The embryonic stages were harvested into sterile 15 ml. centrifuge tubes and washed three times by centrifuging at 300 g for 10 minutes each with medium and the final pellet was suspended in 1 ml. of RPMI-1640 medium (Sigma R 8005) supplemented with 10% FBS (Sigma F 2442) The number of embryonic stages of S. digitata in the above preparation were counted using light microscope, and the suspension was taken in RPMI-1640 medium containing 10% FBS at 1×10^5 embryonic stages/ml. One ml. each was dispensed into individual wells of a 24 well tissue culture plate. One set of wells was taken as untreated control containing only medium with 10% FBS. […] Motility of the Mf was scored under an inverted microscope. After appropriate treatment and incubation, each set of the cultured embryonic stages of S. digitata were harvested from the 24 well tissue culture plate separately in 15 ml. sterile centrifuge tubes, washed with PBS twice and stained as per requirement following manufacturer's instructions as described below. This was followed by two times washing with PBS and final suspension of the stained embryonic stages was taken in 0.5 ml of sheath fluid (BD Biosciences 342003) before their acquisition in the flow cytometer (BD FACS Calibur, Becten and Dickinson, USA). Analysis was performed on 10,000-acquired events depicted as Dot Plots and Histogram Plots using Cellquest Pro soft ware. All plots were representative of at least 3 experiments. […] After in vitro culture for 24 hours with apoptosis inducing reagents the embryonic stages were harvested in 15 ml. sterile centrifuge tubes and fixed for 60 minutes at 0° C. in 1% paraformaldehyde (Sigma P 6148) in PBS. The suspension was washed first with PBS and then with 1× permeabilisation buffer (eBioscience 00-8333-56) and finally resuspended in 100 μl of 1× permeabilisation buffer at 1×10^5 embryonic stages per ml. This suspension was then incubated for 45 minutes with 20 μl of anti cytochrome c-FITC (eBioscience 11-6601-82). This was followed by washing with PBS twice and analysis by Flow cytometer.

| SMILES | GMI (Geometric Mean Intensity) of Fluorescence, Cyt-c Staining (Eggs, 10 μM) | GMI (Geometric Mean Intensity) of Fluorescence, Cyt-c Staining (Microfilariae, 10 μM) | GMI (Geometric Mean Intensity) of Fluorescence, Cyt-c Staining (Eggs, 1 μM) | GMI (Geometric Mean Intensity) of Fluorescence, Cyt-c Staining (Microfilariae, 1 μM) |
| --- | --- | --- | --- | --- |
| CC1=CC(=O)c2c(O)cccc2C1=O [Plumbagin] | 70.29 and 76.25 and 71.32 | 18.69 and 20.32 and 17.56 |  |  |
| OO [H2O2] | 62.37 and 67.72 and 65.39 | 7.53 and 9.23 and 8.14 |  |  |
| CN[C@@H]1C[C@H]2O[C@@](C)([C@@H]1OC)n1c3ccccc3c3c4c(c5c6ccccc6n2c5c31)C(=O)NC4 [Staurosporine] |  |  | 54.33 and 61.66 and 57.27 | 6.02 and 4.20 |
